Reference: article PMC4581228, “Membrane Affinity of Platensimycin and Its Dialkylamine Analogs” (International Journal of Molecular Sciences, 2015)

Experiments:
[1] = system: A98S MscS in the cytoplasmic membrane of E. coli; assay: Patch-clamp of A98S MscS in excised spheroplast patches (activation midpoint shift); conditions: A98S MscS, cytoplasmic addition of 0.6 mM, six independent patches
Procedure: A pB10b vector was used to house and express the mscS gene in the triple-knockout E. coli strain MJF465 (mscS^−, mscL^−, mscK^−). The A98S MscS mutant, generated and partially characterized previously, was chosen for its higher sensitivity to inner leaflet drug partitioning.
Spheroplasts were generated as described previously. The experimental bath solution contained 400 mM sucrose, 200 mM KCl, 50 mM MgCl2, 5 mM CaCl2, and 5 mM HEPES and was titrated to pH 7.4 with KOH. Membrane patches were obtained on borosilicate glass pipettes and recorded at 30 mV pipette voltage set by a microelectrode amplifier. The midpoint of activation for channels in each patch was determined at two-minute intervals for the duration of the experiment via a 1 s ramp of saturating pressure. Analogs of platensimycin were pre-diluted in either ethanol or bath solution and perfused into the bath to achieve the desired concentration; control injections of equivalent volumes of ethanol had no effect on the midpoint of activation. Negative pressure (suction) was applied with the HSPC-1 high speed pressure clamp apparatus from ALA Scientific. Programming of the pressure protocols and data analysis was performed with the PClamp10 suite (Axon Instr., Foster City, CA, USA). The principle of lateral pressure measurements using two experimental systems, lipid monolayers and patch-clamp, is illustrated in Figure 1.
Similarly, the bulk-membrane partitioning coefficient (Kmem) was estimated from the values of relative increase in MscS activation pressure midpoint (p0.5) measured in patch-clamp experiments at different concentrations of intercalating agents by linear fit of Δp0.5 as a function of log(Cd).

[2] = system: WT MscS in the cytoplasmic membrane of E. coli; assay: Patch-clamp of WT MscS in excised spheroplast patches (activation midpoint shift); conditions: cytoplasmic addition of 0.6 mM, six independent patches
From the text: We explored the A98S gain-of-function mutant of MscS and found it to be a more suitable sensor. In pressure ramp experiments this mutant activates earlier, but apparently has the same tension dependency of inactivation as WT [20]. […] The serine-for-alanine substitution hydrophilizes the outer portion of the hydrophobic pore. As a result, the remaining hydrophobic region is localized to the cytoplasmic portion of the pore, placing the gate more asymmetrically relative to the mid-plane of the bilayer. […] We tested this mutant against WT with a cytoplasmic addition of 0.6 mM paraben, which has been characterized previously. The typical activation curves (open probability vs. pipette pressure) measured with pipettes of equal size for the two channels are shown in Figure 2. Not only is the absolute shift of activating pressure (p0.5) greater for A98S, but the percentage of midpoint shift relative to the original midpoint averaged for six independent patches was 41% ± 6% for the mutant vs. 14% ± 4% for WT. […]
Spheroplasts were generated as described previously. […] Membrane patches were obtained on borosilicate glass pipettes and recorded at 30 mV pipette voltage set by a microelectrode amplifier. The midpoint of activation for channels in each patch was determined at two-minute intervals for the duration of the experiment via a 1 s ramp of saturating pressure. […]

CCCCOC(=O)c1ccc(O)cc1 [paraben, butyl paraben, reference compound]
Percentage of midpoint shift relative to the original midpoint [1]: 41% ± 6%
Percentage of midpoint shift relative to the original midpoint [2]: 14% ± 4%
